Results taken from patent US20050176812A1, “Method of treating cancer” (priority 2003, published 2005).

Columns and labels:
[1] = stability of discodermolide infusion solution; type: physicochemical; conditions: infusion concentrate mixed with diluent; infusion solution 0.1-2.0 mg/mL, 0.1-1.5 mg/mL, 0.5-8.0 mg/mL or 0.77 mg/mL
Method: The amount of diluent used in admixture with the infusion concentrate to form an infusion solution may be chosen so as to obtain a desired concentration of discodermolide in the infusion solution. The amount of diluent used is also chosen so that the solution is stable long enough to be administered. Concentration of infusion solutions are 0.1-2.0 mg/mL, or 0.1-1.5 mg/mL or preferably 0.5-8.0 mg/mL or 0.77 mg/mL. Such solutions are found to be stable for up to 8 hours.

[2] = precipitation on direct i.v. infusion followed by normal saline flush; type: physicochemical; conditions: 0.77 mg/mL in 40% propylene glycol, 10% ethanol, 50% normal saline; direct i.v. infusion into the vein followed by normal saline flush
Method: Preferably the infusion solution of the present invention is prepared by mixing the infusion concentrate with a diluent, such as 16.3% W/v ethanol in saline in a suitable container. A preferred formulation comprises 1 mL of 2 mg/mL infusion concentrate diluted with 1.6 mL of 16.3% w/v ethanol in saline to yield an infusion solution containing 0.77 mg/mL discodermolide in 40% propylene glycol, 10% ethanol and 50% normal saline. This solution is administered via iv infusion, or push into Y tubing containing a 0.9% normal saline drip, directly into the vein and the drug solution residue in the tubing will be flushed with normal saline. The volume of discodermolide solution given via i.v. push will vary from 0.3 mL (at the starting does of 0.2 mg or 0.13 mg/m^2) to 26 mL (for a dose of 20 mg or 11.43 mg/m^2) or 43 mL (for a dose of 33 mg or 19.2 mg/m^2).

C=C/C=C\[C@H](C)[C@H](OC(N)=O)[C@@H](C)[C@H](O)[C@@H](C)C/C(C)=C\[C@H](C)[C@@H](O)[C@@H](C)/C=C\[C@@H](O)C[C@@H]1OC(=O)[C@H](C)[C@@H](O)[C@H]1C [discodermolide]
stability of infusion solution (time stable) [1]: up to 8 hours | precipitation of discodermolide [2]: will not cause any precipitation
